What was measured:
Cannabinoid receptor 2 [1] = molecular target: T1, Cannabinoid receptor 2 (Homo sapiens, UniProt P34972); assay: Antagonist activity at CB2 receptor (unknown origin) stably expressed in CHO cells co-expressing co-expressing Ga15/16 assessed as calcium current at 10 uM after 45 mins by fluo-4 AM assay relative to basal control; format: functional, cell-based
Cannabinoid receptor 1 [2] = molecular target: T2, Cannabinoid receptor 1 (Homo sapiens, UniProt P21554); conditions: CHO, at 10 µM
T2 sequence (P21554 whole entry): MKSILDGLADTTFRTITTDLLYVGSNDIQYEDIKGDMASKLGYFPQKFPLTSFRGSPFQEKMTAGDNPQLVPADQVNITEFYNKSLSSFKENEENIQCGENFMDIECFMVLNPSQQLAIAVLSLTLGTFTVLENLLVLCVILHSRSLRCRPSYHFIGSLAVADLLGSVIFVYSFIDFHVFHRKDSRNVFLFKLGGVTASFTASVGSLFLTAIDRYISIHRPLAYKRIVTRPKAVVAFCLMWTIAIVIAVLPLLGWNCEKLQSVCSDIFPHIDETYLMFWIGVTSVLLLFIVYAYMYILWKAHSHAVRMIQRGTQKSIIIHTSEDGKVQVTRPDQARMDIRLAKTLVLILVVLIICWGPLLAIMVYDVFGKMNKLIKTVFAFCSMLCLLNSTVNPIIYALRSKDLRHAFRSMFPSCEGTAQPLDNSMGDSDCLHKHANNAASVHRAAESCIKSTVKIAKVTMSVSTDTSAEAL

Cannabinoid receptor 2 [3] = molecular target: T1, Cannabinoid receptor 2; assay: Antagonist activity at CB2 receptor (unknown origin) stably expressed in CHO cells co-expressing co-expressing Ga15/16 assessed as calcium current after 45 mins by fluo-4 AM assay; format: functional, cell-based
Cannabinoid receptor 1 [4] = molecular target: T2, Cannabinoid receptor 1; format: functional, cell-based, CHO

T1 sequence (P34972 whole entry): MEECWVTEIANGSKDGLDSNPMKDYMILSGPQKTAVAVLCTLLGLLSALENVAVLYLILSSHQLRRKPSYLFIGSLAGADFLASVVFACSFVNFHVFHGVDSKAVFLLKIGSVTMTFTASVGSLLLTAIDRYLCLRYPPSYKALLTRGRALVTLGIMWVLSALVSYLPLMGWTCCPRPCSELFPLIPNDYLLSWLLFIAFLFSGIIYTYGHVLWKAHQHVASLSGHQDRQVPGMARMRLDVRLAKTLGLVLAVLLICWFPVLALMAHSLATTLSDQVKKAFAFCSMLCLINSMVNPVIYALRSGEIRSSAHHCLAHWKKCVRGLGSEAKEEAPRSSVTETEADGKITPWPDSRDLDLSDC

SMILES | inhibition (Cannabinoid receptor 2 [1]) | inhibition (Cannabinoid receptor 1 [2]) | IC50 (Cannabinoid receptor 2 [3]) | IC50 (Cannabinoid receptor 1 [4])
Cc1ccc(Cn2c(-c3ccc(Cl)cc3)nn(C(=O)NC3CCCCC3)c2=O)cc1 | 87.7% | 42.6% | 1.93 µM | 
COc1ccc(-c2nn(C(=O)NC3CCCCC3)c(=O)n2-c2ccc(Cl)cc2)cc1 | 124% | 96.5% | 6.08 µM | 878 nM
Cc1ccc(-c2nn(C(=O)NC3CCCCC3)c(=O)n2-c2ccc(Cl)cc2)cc1 | 58.5% | 98.2% |  | 2100 nM
Cc1ccc(Cn2c(-c3ccc(C)cc3)nn(C(=O)NC3CCCCC3)c2=O)cc1 | 132% | 60.9% | 5.03 µM | 17800 nM
Cc1ccc(-n2c(-c3ccc(Cl)cc3)nn(C(=O)NC3CCCCC3)c2=O)cc1 | 46.4% | 102% |  | 222 nM
CCCCCOc1c(OC)ccc2cc(C(=O)NCc3ccc4c(c3)OCO4)c(=O)[nH]c12 | 130% | 37.6% |  | 
COc1ccc(-c2nn(C(=O)NC3CCCCC3)c(=O)n2-c2ccc(C)cc2)cc1 | 131% | 98% | 4.09 µM | 1840 nM
COc1ccc(-c2nn(C(=O)Nc3ccc(Cl)cc3)c(=O)n2-c2ccc(C)cc2)cc1 | 43.6% | 90.5% |  | 4730 nM
Cc1ccc(NC(=O)n2nc(-c3ccc(C)cc3)n(-c3ccc(Cl)cc3)c2=O)cc1 |  | 91.9% |  | 947 nM
Cc1ccc(Cn2c(-c3ccc(C)cc3)nn(C(=O)Nc3ccc(Cl)cc3)c2=O)cc1 | 29.9% | 89% |  | 3750 nM
COc1ccc(-n2c(-c3ccc(Cl)cc3)nn(C(=O)NC3CCCCC3)c2=O)cc1 | 94% | 98.6% | 1.51 µM | 388 nM
COc1ccc(-c2nn(C(=O)Nc3ccc(C)cc3)c(=O)n2-c2ccc(Cl)cc2)cc1 | 74% | 96.6% |  | 2280 nM
COc1ccc(-n2c(-c3ccc(Cl)cc3)nn(C(=O)Nc3ccc(C)cc3)c2=O)cc1 | 85.6% | 74.6% | 20 µM | 8440 nM
Cc1ccc(Cn2c(-c3ccc(Cl)cc3)nn(C(=O)Nc3ccc(C)cc3)c2=O)cc1 |  | 36.8% |  | 

Reference: ChEMBL document CHEMBL3120110, “Design, synthesis, biological evaluation, and comparative docking study of 1,2,4-triazolones as CB1 receptor selective antagonists” (Eur J Med Chem, 2014)
